Data from the supplement of paper PMC10307832.

Key:
Test in all cases: relative viability (nuclei count vs DMSO), 5 days (fraction); higher = more cells survive
Trametinib + Palbociclib = compound: CC(=O)Nc1cccc(-n2c(=O)n(C3CC3)c(=O)c3c(Nc4ccc(I)cc4F)n(C)c(=O)c(C)c32)c1 [Trametinib] + CC(=O)c1c(C)c2cnc(Nc3ccc(N4CCNCC4)cn3)nc2n(C2CCCC2)c1=O [Palbociclib] (partner 0.5 µM)
How it was run: (§1)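 Medians of duplicate plates are given as relative viability. That measure is the nuclei count in treated wells divided by the count in vehicle wells. Counts were taken on 4× images of lung cancer cell lines in 1536-well plates, 5 days after pin-tool dosing the day after seeding with one drug alone or a fixed anchor-drug dose plus five library-drug doses (not always all listed) in √10 steps.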

Trametinib + Dasatinib = compound: CC(=O)Nc1cccc(-n2c(=O)n(C3CC3)c(=O)c3c(Nc4ccc(I)cc4F)n(C)c(=O)c(C)c32)c1 [Trametinib] + Cc1nc(Nc2ncc(C(=O)Nc3c(C)cccc3Cl)s2)cc(N2CCN(CCO)CC2)n1 [Dasatinib] (partner 0.075 µM)
How it was run: as §1

Trametinib + Decitabine = compound: CC(=O)Nc1cccc(-n2c(=O)n(C3CC3)c(=O)c3c(Nc4ccc(I)cc4F)n(C)c(=O)c(C)c32)c1 [Trametinib] + Nc1ncn([C@H]2C[C@H](O)[C@@H](CO)O2)c(=O)n1 [Decitabine] (partner 2 µM)
How it was run: as §1

Trametinib + Vorinostat = compound: CC(=O)Nc1cccc(-n2c(=O)n(C3CC3)c(=O)c3c(Nc4ccc(I)cc4F)n(C)c(=O)c(C)c32)c1 [Trametinib] + O=C(CCCCCCC(=O)Nc1ccccc1)NO [Vorinostat] (partner 1 µM)
How it was run: as §1

Cell Line | relative viability (Trametinib + Palbociclib; first compound 0.0025 µM) | relative viability (Trametinib + Palbociclib; first compound 0.007906 µM) | relative viability (Trametinib + Palbociclib; first compound 0.025 µM) | relative viability (Trametinib + Palbociclib; first compound 0.07906 µM) | relative viability (Trametinib + Palbociclib; first compound 0.25 µM) | relative viability (Trametinib + Dasatinib; first compound 0.0025 µM) | relative viability (Trametinib + Dasatinib; first compound 0.007906 µM) | relative viability (Trametinib + Dasatinib; first compound 0.025 µM) | relative viability (Trametinib + Dasatinib; first compound 0.07906 µM) | relative viability (Trametinib + Dasatinib; first compound 0.25 µM) | relative viability (Trametinib + Decitabine; first compound 0.0025 µM) | relative viability (Trametinib + Decitabine; first compound 0.007906 µM) | relative viability (Trametinib + Decitabine; first compound 0.025 µM) | relative viability (Trametinib + Decitabine; first compound 0.07906 µM) | relative viability (Trametinib + Decitabine; first compound 0.25 µM) | relative viability (Trametinib + Vorinostat; first compound 0.0025 µM) | relative viability (Trametinib + Vorinostat; first compound 0.007906 µM) | relative viability (Trametinib + Vorinostat; first compound 0.025 µM) | relative viability (Trametinib + Vorinostat; first compound 0.07906 µM) | relative viability (Trametinib + Vorinostat; first compound 0.25 µM)
HCC-15 | 0.704 | 0.427 | 0.307 | 0.232 | 0.222 | 0.287 | 0.214 | 0.163 | 0.135 | 0.121 | 0.519 | 0.464 | 0.501 | 0.248 | 0.234 | 0.814 | 0.549 | 0.395 | 0.276 | 0.275
HCC-44 | 0.974 | 1.01 | 1.08 | 1.03 | 1.02 |  |  |  |  |  | 0.894 | 0.924 | 1.05 | 0.943 | 0.848 | 1.08 | 1.06 | 1.09 | 0.909 | 0.808
HCC-78 | 0.452 | 0.46 | 0.398 | 0.457 | 0.449 | 0.359 | 0.265 | 0.23 | 0.294 | 0.25 | 0.81 | 0.662 | 0.621 | 0.683 | 0.66 | 0.447 | 0.377 | 0.382 | 0.433 | 0.414
HCC-366 | 0.307 | 0.287 | 0.137 | 0.0839 | 0.0678 | 0.47 | 0.416 | 0.32 | 0.227 | 0.196 | 0.29 | 0.307 | 0.276 | 0.273 | 0.206 | 0.354 | 0.291 | 0.357 | 0.356 | 0.106
HCC-827 | 0.461 | 0.395 | 0.423 | 0.296 | 0.289 | 0.301 | 0.243 | 0.246 | 0.144 | 0.157 | 0.365 | 0.289 | 0.315 | 0.274 | 0.236 | 0.903 | 0.876 | 0.71 | 0.677 | 0.502
HOP-62 | 0.505 | 0.444 | 0.397 | 0.231 | 0.158 | 0.681 | 0.43 | 0.249 | 0.206 | 0.212 | 0.199 | 0.229 | 0.252 | 0.235 | 0.227 | 0.648 | 0.467 | 0.277 | 0.301 | 0.106
IA-LM |  |  |  |  |  |  |  |  |  |  |  |  |  |  |  | 0.744 | 0.604 | 0.255 | 0.125 | 0.12
LC-2-ad | 0.5 | 0.452 | 0.461 | 0.381 | 0.404 | 0.484 | 0.485 | 0.502 | 0.313 | 0.301 | 0.803 | 0.683 | 0.782 | 0.689 | 0.7 | 0.648 | 0.665 | 0.663 | 0.547 | 0.472
LCLC-97TM1 | 0.166 | 0.141 | 0.15 | 0.13 | 0.115 | 0.816 | 0.44 | 0.381 | 0.125 | 0.171 | 0.275 | 0.287 | 0.206 | 0.203 | 0.169 | 0.722 | 0.701 | 0.435 | 0.225 | 0.0816
LCLC-103H | 0.484 | 0.44 | 0.483 | 0.468 | 0.507 | 0.498 | 0.512 | 0.429 | 0.402 | 0.446 | 0.754 | 0.68 | 0.692 | 0.689 | 0.596 | 0.808 | 0.636 | 0.699 | 0.631 | 0.588
LK-2 | 0.551 | 0.603 | 0.704 | 0.738 | 0.223 | 0.251 | 0.272 | 0.239 | 0.212 | 0.156 | 0.309 | 0.259 | 0.181 | 0.18 | 0.147 | 0.346 | 0.288 | 0.164 | 0.344 | 0.326
NCI-H596 |  |  |  |  |  | 0.533 | 0.535 | 0.495 | 0.487 | 0.303 | 0.967 | 0.96 | 0.952 | 0.968 | 0.739 | 0.6 | 0.555 | 0.436 | 0.427 | 0.263
NCI-H1563 |  |  |  |  |  | 0.466 | 0.509 | 0.467 | 0.438 | 0.464 |  |  |  |  |  |  |  |  |  | 
NCI-H1623 |  |  |  |  |  | 0.487 | 0.449 | 0.306 | 0.378 | 0.618 |  |  |  |  |  |  |  |  |  | 
NCI-H1648 | 0.251 | 0.284 | 0.278 | 0.336 | 0.303 |  |  |  |  |  | 0.508 | 0.44 | 0.554 | 0.517 | 0.371 | 0.422 | 0.479 | 0.488 | 0.3 | 0.376
NCI-H1792 | 0.6 | 0.51 | 0.49 | 0.382 | 0.303 | 0.694 | 0.515 | 0.652 | 0.549 | 0.396 | 0.436 | 0.443 | 0.318 | 0.364 | 0.291 |  |  |  |  | 
NCI-H2228 | 0.649 | 0.595 | 0.57 | 0.369 | 0.235 | 0.44 | 0.36 | 0.348 | 0.237 | 0.143 |  |  |  |  |  | 0.673 | 0.87 | 0.766 | 0.426 | 0.309
